From US4461900A, “4,5-Dihydrothiadiazole 1,1-dioxide derivatives” (American Home Products Corporation, priority 1983, dated 1984)

Key:
H2 receptor = conditions: cited from earlier work
H2 -receptor = molecular target: T1, H2 -receptor (Cavia porcellus, UniProt P47747); experiment: In vitro H2 antagonism: histamine-induced heart rate increase in isolated guinea-pig right atria; format: cell-based; conditions: at 10^-4, 10^-5 M
T1 construct: The right atria of Males Charles River guinea-pigs; from tissue; host or cells: isolated right atria of male Charles River guinea-pigs
T1 sequence (P47747 whole entry): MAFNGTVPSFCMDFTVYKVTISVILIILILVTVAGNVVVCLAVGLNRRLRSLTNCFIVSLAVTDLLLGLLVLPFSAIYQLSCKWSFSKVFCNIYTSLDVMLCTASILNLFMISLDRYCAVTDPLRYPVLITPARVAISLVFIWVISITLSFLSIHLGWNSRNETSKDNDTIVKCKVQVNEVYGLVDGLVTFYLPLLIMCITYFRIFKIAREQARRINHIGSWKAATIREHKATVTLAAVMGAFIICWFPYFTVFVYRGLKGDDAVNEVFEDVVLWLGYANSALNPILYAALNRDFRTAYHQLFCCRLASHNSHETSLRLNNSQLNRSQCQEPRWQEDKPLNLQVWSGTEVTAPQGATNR
Method: The right atria of Males Charles River guinea-pigs (250-325 gm), trimmed of extraneous tissues is suspended in a bath at a 1.0 g tension load between an anchor and a Grass Model FT03 force displacement transducer which is coupled to a Beckman Dynograph recorder. The Krebs-Henseleit bath is oxygenated (95% O2 -5% CO2) and maintained at 32° C. After establishing a regular pattern of spontaneous activity over one hour, cumulative doses of histamine are introduced into the bath and the maximal heart rate increase recorded after each addition to establish a response control.
Then the tissue is washed, returned to rest rates and the compound being treated is introduced into the bath. Thirty minutes later the histamine dose-response study is repeated. The response to histamine in the presence of an antagonist differs from that obtained in the absence of antagonist and the log of the ratio of differences is platted against the log concentration of antagonist for each of several concentrations from which the apparent dissociation constant (pA2) is calculated.

[1] = system: histamine induced gastric acid secretion; conditions: dog; cited from earlier work

C#CCNC(=NC#N)NCCSCc1nc[nH]c1C [Etintidine]
Potency as H2 -receptor antagonist relative to cimetidine (H2 receptor): more potent than cimetidine

CN(C)Cc1ccc(CSCCNC2=NS(=O)(=O)CN2)o1 [Example 1, N-[2-[[[5-[(DIMETHYLAMINO)METHYL]-2-FURANYL]METHYL]THIO]ETHYL]-4,5-DIHYDRO- 1,2,4-THIADIAZOL-3-AMINE 1,1-DIOXIDE]
H2 antagonism (activity at stated concentrations) (H2 -receptor): active

CNC(=C[N+](=O)[O-])NCCSCc1ccc(CN(C)C)o1 [Ranitidine]
Potency relative to cimetidine in blocking histamine induced gastric acid secretion [1]: about 5 times

CNC(=NC#N)NCCSCc1csc(N=C(N)N)n1 [Tiotidine]
Potency relative to cimetidine in H2 receptor antagonism (H2 receptor; both in vitro and in vivo studies): at least ten
